In series [1] the test system is HCV 1b replicon. Kind of series: Secondary HCV antiviral assay: qRT-PCR. It counts as cell-based. For orientation: Quantitative PCR measures a nucleic acid by following its amplification.
The test system of series [2] is cell line ET (luc-ubi-neo/ET), Huh7 human hepatoma cell line.
Series [3] has the same test system. Kind of series: Cytotoxicity in secondary assay. The conditions noted are these: cellular ribosomal RNA as cytotoxicity control.
Series [4] in a line: Metabolic stability assay. It counts as in vitro ADME, human.
For series [5] the following is noted: cited from earlier work.
Series [6] is described as follows: in vitro. The conditions noted are these: human.
Series [7] can be described thus: Cytotoxicity in secondary assay. The conditions noted are these: human.
Setting [8] is: qRT-PCR (TaqMan) of HCV RNA, single assay, quadruplicate wells.
Where [9] appears, read: human liver microsomes, 0.1 µM, NADPH-regenerating system, 37 °C, mean of two independent experiments.

Read-outs that look alike come from different tables or passages of the source.

In general, EC50 refers to the concentration at which the effect is half-maximal. The low end stands for an effect from little substance, the high end for a need for much substance. In general, EC90 refers to the point of the concentration-response curve where the effect stands at 90%. Low values mean greater potency, high ones weaker potency. `CC(C)CCOC(=O)[C@H](COCc1ccccc1)NP(=O)(OC[C@H]1O[C@@H](n2ccc(=O)[nH]c2=O)[C@](C)(O)[C@@H]1O)Oc1ccccc1` (stereo partly drawn) [31e, 2′-C-Methyl-uridine-5′-[phenyl(α-isoamyl-β-O-benzyl-L-serine)]phosphate]: in series [1] (setting [8]), the midpoint of the response, the EC50, lay at 10 nM and the 90% effect level (EC90) was put at 80 nM. Also, the CC50 in series [2] is 8 µM. The same compound came in with a CC50 in series [3] of 4.59 µM.
Compound `C[C@@]1(O)[C@H](O)[C@@H](CO)O[C@H]1n1ccc(=O)[nH]c1=O` [2’-C-Me-uridine, reference compound] returned a CC50 in series [2] above 100 µM.
In series [2], `COC(=O)[C@H](COCc1ccccc1)NP(=O)(OC[C@H]1O[C@@H](n2ccc(=O)[nH]c2=O)[C@](C)(O)[C@@H]1O)Oc1ccccc1` (stereo partly drawn) [31c, 2′-C-Methyl-uridine-5′-[phenyl(α-methoxy-β-O-benzyl-L-serine)]phosphate] returned a CC50 above 20 µM.
The same measure, in the same setting: for `COC(=O)[C@H](COC(=O)C(C)C)NP(=O)(OC[C@H]1O[C@@H](n2ccc(=O)[nH]c2=O)[C@](C)(O)[C@@H]1O)Oc1ccccc1` (stereo partly drawn) [31f, 2′-C-Methyl-uridine-5′-[phenyl(α-methoxy-β-O-isobutyryl-L-serine)]phosphate] the value was above 20 µM.
In series [1] (setting [8]), `CC(C)CCOC(=O)[C@@H](NP(=O)(OC[C@H]1O[C@@H](n2ccc(=O)[nH]c2=O)[C@](C)(O)[C@@H]1O)Oc1ccccc1)[C@@H](C)OCc1ccccc1` (stereo partly drawn) [31i, 2′-C-Methyl-uridine-5′-[phenyl(isoamyl-O-benzyl-L-threonine)]phosphate] displayed an EC50 of 40 nM and an EC90 of 690 nM. In series [4] (human, microsomes), this compound displayed a Clint of 699.00 µl/min/mg protein and a T1/2 of 10 min. The same compound returned a CC50 in series [2] above 20 µM. In series [3], this compound yielded a CC50 of 7.27 µM.
In series [1] (setting [8]), `CC(C)CCOC(=O)CC[C@H](NP(=O)(OC[C@H]1O[C@@H](n2ccc(=O)[nH]c2=O)[C@](C)(O)[C@@H]1O)Oc1ccccc1)C(=O)OCCC(C)C` (stereo partly drawn) [31b, 2′-C-Methyl-uridine-5′-[phenylbis(isoamyl-L-glutamyl)]phosphate] came in with an EC50 of 10 nM and a concentration for an effect of 90% (EC90) of 130 nM. Besides, in series [4] (human, microsomes), the Clint was determined as 844.60 µl/min/mg protein and the T1/2 is 8 min. In series [2], this compound displayed a CC50 above 20 µM. In series [3], this compound came in with a CC50 of 9.98 µM.
In series [4] (human, microsomes), `CCCCCOC(=O)[C@H](COCc1ccccc1)NP(=O)(OC[C@H]1O[C@@H](n2ccc(=O)[nH]c2=O)[C@](C)(O)[C@@H]1O)Oc1ccccc1` (stereo partly drawn) [31d, 2′-C-Methyl-uridine-5′-[phenyl(α-amyl-β-O-benzyl-L-serine)]phosphate] had a Clint of 496.80 µl/min/mg protein and a T1/2 of 14 min. This compound also registered a CC50 in series [2] of 5.89 µM.
In series [1] (setting [8]), `CC(C)CCOC(=O)[C@H](COC(=O)C(C)C)NP(=O)(OC[C@H]1O[C@@H](n2ccc(=O)[nH]c2=O)[C@](C)(O)[C@@H]1O)Oc1ccccc1` (stereo partly drawn) [31h, 2′-C-Methyl-uridine-5′-[phenyl(α-isoamyl-β-O-isobutyryl-L-serine)]phosphate] gave a concentration for a half-maximal effect (EC50) of 20 nM and an EC90 of 130 nM. In series [4] (human, microsomes), this compound yielded a Clint of 763.70 µl/min/mg protein and a T1/2 of 9 min. In addition, in series [2], the CC50 is 7.51 µM. Besides, in series [3], the CC50 is 5.28 µM.
As to `CCCCCOC(=O)[C@H](COC(=O)C(C)C)NP(=O)(OC[C@H]1O[C@@H](n2ccc(=O)[nH]c2=O)[C@](C)(O)[C@@H]1O)Oc1ccccc1` (stereo partly drawn) [31g, 2′-C-Methyl-uridine-5′-[phenyl(α-amyl-β-O-isobutyryl-L-serine)]phosphate], in series [2], the CC50 is 6.79 µM.
`CC(C)OC(=O)[C@H](C)N[P@](=O)(OC[C@H]1O[C@@H](n2ccc(=O)[nH]c2=O)[C@](C)(F)[C@@H]1O)Oc1ccccc1` [Sofosbuvir, reference compound]: it took 70 nM to reach a half-maximal effect in series [1] (Hepatitis C virus) (EC50). In series [1] (Hepatitis C virus), the EC90 amounted to 280 nM. In addition, the “cytotoxicity (devoid up to)” value in series [5] was above 100 µM. For the same compound, the CC50 in series [6] and in series [7] was above 5 µM in each case.
In series [1] (setting [8]), `CC(C)CCOC(=O)[C@H](Cc1ccc(OC(=O)C(C)C)cc1)NP(=O)(OCC1OC(n2ccc(=O)[nH]c2=O)C(C)(O)C1O)Oc1ccccc1` (stereo partly drawn) [31k, 2′-C-Methyl-uridine-5′-[phenyl(isoamyl-O-isobutyryl-L-tyrosine)]phosphate] yielded an EC50 of 40 nM and an EC90 of 690 nM. For the same compound, in series [4] (setting [9]), the Clint is listed as 679.60 µl/min/mg protein and the T1/2 is on record as 10 min. Further, the CC50 in series [2] (concentration decreasing cell viability by 50%, 72 hrs, CytoTox-ONE) is above 20 µM. Moreover, the CC50 in series [3] amounted to 18.4 µM.
In series [2], `CC(C)CCOC(=O)[C@@H](NP(=O)(OC[C@H]1O[C@@H](n2ccc(=O)[nH]c2=O)[C@](C)(O)[C@@H]1O)Oc1ccccc1)[C@@H](C)OC(=O)C(C)C` (stereo partly drawn) [31j, 2′-C-Methyl-uridine-5′-[phenyl(isoamyl-O-isobutyryl-L-threonine)]phosphate] came in with a CC50 of 11.5 µM.
Consider `COC(=O)CC[C@H](NP(=O)(OC[C@H]1O[C@@H](n2ccc(=O)[nH]c2=O)[C@](C)(O)[C@@H]1O)Oc1ccccc1)C(=O)OC` (stereo partly drawn) [31a, 2′-C-Methyl-uridine-5′-[phenylbis(methoxy-L-glutamyl)]phosphate], for which the CC50 in series [2] is above 20 µM.
